Reference: US20230172913A1, “COMPOUNDS FOR USE IN THE REACTIVATION OF HIV IN LATENT HIV-INFECTED CELLS” (CENTRE NATIONAL DE LA RECHERCHE SCIENTIFIQUE, priority 2020, published 2023)
Values joined by “and” are separate entries in the source; they are usually repeats but may differ in a detail not shown here. Identical values can stand only once.

Columns and labels:
J-Lat 9.2 latent cells = assay: LRA activity on J-Lat 9.2 latent cells (GFP, FACS); assay type: cell-based; conditions: 5 μM, 24 h, GFP fluorescence by FACS
Protocol: FIG. 3A LRA activity of the compounds (1), (2) (3) (C-1, C-2, C-3) and SAHA (histone deacetylase inhibitor) at 5 μM on J-Lat 9.2 latent cells (derived from Jurkats). J-Lat 9.2 have a complete (single) HIV genome with a non-functional Env gene, and a GFP instead of Nef (Symons, J., and al., Retrovirology, 2017. 14(1): p. 2; Jordan, A., and al., The EMBO journal, 2003. 22(8): p. 1868-77). The activation of these viruses can be followed by the production of GFP and therefore by the detection of green fluorescence in the cells, followed by FACS. n=3. Means+/−SEM.**, p<0.01, compared to the drug-free control (One-way ANOVA).
To test the LRA effect of the molecules, JLat9.2 cells were first used. This latent cell line (source: NIH AIDS Reagents Program, NARP) derived from Jurkat cells contains an HIV genome with an inactivated Env gene and a GFP instead of Nef (Retrovirology, 14 (2017) 2). The lifting of latency is accompanied by the emission of fluorescence from GFP. The cells were treated with molecules at 5 μM for 24 h before analysis of the cells with a FACScalibur to determine the % of cells emitting fluorescence. It can be seen in FIG. 3A that the compound (2) at 5 μM has a significant LRA activity, of the order of 20-30% of that of SAHA.

Tat protein [1] = assay: Transactivation by Tat in HeLa cells (LTR-firefly/TK-renilla luciferase); assay type: cell-based, HIV-1; conditions: for transactivation by extracellular Tat relative to control / transactivation by intracellular Tat relative to negative control: 5 μM compound, HeLa, 24 h; for transactivation by extracellular Tat relative to control: 200 nM Tat extra; for transactivation by intracellular Tat relative to negative control: Tat transfected (Tat intra)
Protocol: FIG. 2 Evaluation of the transactivating activity of the Tat protein of HeLa cells in the presence of 5 μM of the compound (2) (C-2) or of the compound (3) (C-3). HeLa cells were transfected with plasmids containing LTR-firefly and TK-renilla. In the Tat intra condition, Tat is co-transfected. 18 h after transfection the compounds (2) or (3) were added (5 μM), as well as 200 nM Tat for the Tat extra condition. The cells are lysed for the luciferase tests 24 hours later. The firefly/renilla ratio obtained under control conditions was set at 100. n=2. Means+/−SEM.**, p<0.01, ***, p<0.001 and ****, p<0.0001 compared to the drug-free control (One-way ANOVA).
For this test, the effect of the molecules on transactivation by the extracellular or intracellular Tat protein was monitored by the activity of two luciferases. On the one hand the Firefly luciferase, which is under the control of a viral promoter LTR dependent on the Tat protein, and on the other hand the Renilla luciferase (internal control), under the control of a Thymidine kinase cellular promoter independent of the Tat protein. Transactivation is expressed by the Firefly/Renilla ratio. All plasmids and the procedure have been described (Mol Biol Cell 15 (2004), 2347).
This series of experiments was carried out in the HeLa line. Cells were transfected with PEImax (Nature Comms 9 (2018) 2251). The drugs and Tat (if Tat extra) were added 18 h after transfection as indicated, and left for 24 h before lysing the cells. The luciferases are then assayed using Promega's Dual-Glo kit and a Tecan SPARK 10M plate reader. Extracellular Tat has the property of being able to enter into the cells.

[2] = tested on: latent T-CD4+ lymphocyte cells from HIV-1 patients; assay: Ex vivo LRA activity on quiescent T-CD4+ cells of HIV-1 patients (p24); assay type: cell-based, human; conditions: for LRA efficacy compared with BST-1: 50-100 nM, 18-20 h, p24 in supernatant
Protocol: FIG. 5 Ex vivo LRA activity on quiescent T-CD4^+ lymphocyte cells of HIV-1 patients. T-CD4 cells were isolated by negative selection before elimination of activated cells (CD25^+, CD69^+, HLA-DR^+) to obtain quiescent cells which were treated with drugs for 18-20 h to avoid reinfections. The LRA activity of the compounds (2) (C-2) and (3) (C-3) was determined by monitoring the viral protein p24 in the supernatant using a commercial ELISA test improved by the use of a luminescent substrate. The detection limit of p24 was 0.2 pg/ml. The response to BST-1 (10 nM) was set at 100% to allow comparison of LRA efficacy between patients (1 point=1 patient).
The ex vivo LRA activity of the compounds according to the invention was tested on latent T-CD4^+ lymphocyte cells from HIV-1 patients. All 8 patients had been under ART treatment for at least 6 months and their viral load was undetectable. Blood samples (20 ml) were taken (agreement with Montpellier University Hospital, Resp: Dr Edouard Tuaillon). After purification of white blood cells on Ficoll-Hypaque, negative selection of T-CD4^+ cells, elimination of activated T-CD4 cells (CD25^+, CD69^+, HLA-DR^+) (Milenyi kits), quiescent cells were treated with the compounds for 18-20 h to avoid reinfections. An assay p24 was then performed using a luminescent reagent (Luminata forte, Millipore) at the end of the Innotest. The sensitivity of the test thus modified is ˜0.2 pg p24/ml. The response to BST-1 varied between patients from 0.2 to 80 pg/ml.

[3] = target: T1, Tat protein (86 residues, isolate BH10) (Human immunodeficiency virus type 1 group M subtype B, UniProt P69697); assay: Surface plasmon resonance (Biacore) on immobilized Tat; assay type: binding, HIV-1
T1 construct: The recombinant Tat protein (86 residues, isolate BH10); made in house; host or cells: E. coli
Protocol: (§1) The recombinant Tat protein (86 residues, isolate BH10) was produced in E. coli and purified on heparin-Sepharose then by HPLC as described (Mol Biol Cell 15 (2004), 2347). The compound (2) (MolPort) being fluorescent (λex 320 nm; λem 410 nm), the fluorescence polarization technique (Methods Appl. Fluoresc. (2016) 4(2)) and a PTI fluorimeter were used for the study of the binding of said compound (17 nM) to the Tat protein (1-60 μM) in citrate buffer (50 mM citrate; 150 mM NaCl; pH 7.2). A Kd of the order of 5 μM was measured. An identical value (˜4 μM) was obtained by surface plasmon resonance (SPR; Biacore) by passing the compound (2) in citrate buffer over immobilized Tat on a CMS chip.

latent cell line ACH-2 = assay: Specificity: HIV-1 production in ACH-2 latent cells with mutated TAR (p24 ELISA); assay type: cell-based; conditions: compound (2), SAHA 5 μM, BST-1 10 nM
Protocol: Means+/−SEM. ****, p<0.0001 compared to the solvent control (One-way ANOVA).
Once induced, these cells produce infectious virions. For these tests, the viral antigen p24 in the cell supernatant was assayed with the Innotest p24 ELISA kit.

[4] = target: T2, Tat-TAR transcription complex (Human immunodeficiency virus type 1 group M subtype B, UniProt P69697); assay: Retardation gel, affinity for Tat-TAR complex; assay type: binding, HIV-1
T2 construct: made in house; host or cells: E. coli
Protocol: FIG. 1A Delay gel showing the migration of TAR RNA which is free or complexed with the Tat protein (Tat/TAR) in the presence of different concentrations (0 to 120 nM) of the compound (2) (C-2). Tat (400 nM) was incubated with 200 nM of TAR-FAM (WT or Abulge) for 1.5 h in the absence or presence of the compound (2), before separation on a 0.5×TBE 8% acrylamide gel, and acquisition of the fluorescence image. The proteins from the gel were then transferred to a nitrocellulose membrane for Tat visualization by Western blot.
FIG. 1B Quantification of the affinity of the compound (2) (C-2) for the Tat-TAR transcription complex. The Tat-TAR fluorescence band of duplicate gels was quantified and the results are shown in the graph (AU, arbitrary units). n=2. Means+/−SEM. *, p<0.05; ***, p<0.001 compared to the control without the compound (2) (One-way ANOVA).
The affinity of the compound (2) for the Tat-TAR complex was studied by retardation gel. […] The fluorescence of the gel is first visualized with a Chemidoc (Biorad) to detect fluorescein (that is to say TAR). […]

[5] = tested on: latent OM10.1 cells (promyeloblasts); assay: LRA activity on OM10.1 latent cells (p24 ELISA); assay type: cell-based; conditions: 5 μM, p24 in supernatant
Protocol: FIG. 3B LRA activity of the compound (2) (C-2) and SAHA at 5 μM on latent OM10.1 cells (promyeloblasts). These latent cells, after induction, produce infectious viruses which are assayed in the supernatant by ELISA p24. n=2. Means+/−SEM.*, p<0.05 and ***, p<0.001 compared to the control medium alone (One-way ANOVA).
The results for the compound (2) were confirmed using another latent cell line, OM10.1 (promyeloblasts; source NARP; PLoS Pathog. 11 (2015) 1) which produces infectious HIV after induction. It was assayed by the viral antigen p24 (HIV-1 capsid protein) in the supernatant using an ELISA kit (Innotest).

[6] = target: T1, Tat protein (86 residues, isolate BH10); assay: Fluorescence polarization binding of compound to recombinant Tat protein; set-up: species or system HIV-1
Protocol: as §1

Tat protein [7] = assay: Transactivation test on primary T-CD4 cells; assay type: cell-based, HIV-1; conditions: primary T-CD4 cells transfected with Tat, 24 h
Protocol: FIG. 6 Transactivation test on primary T-CD4 cells. Primary T-CD4 cells were isolated from the blood of healthy donors, then they were transfected with plasmids containing Tat, LTR-firefly and TK-renilla. 18 h after transfection different concentrations of the compound (2) (C-2) were added, and the lysed cells for the luciferase tests 24 h later. n=3. Means+/−SEM. *, p<0.05 and ***, p<0.001 compared to the control without C-2 (One-way ANOVA).
To verify this point, a transactivation test was carried out with primary T-CD4 cells. […] The need to use doses 100 times higher on cancerous cells (that is to say 5-10 μM) is due to the cancerization process of these cells.

T2 sequence (P69697 whole entry, one chain of several): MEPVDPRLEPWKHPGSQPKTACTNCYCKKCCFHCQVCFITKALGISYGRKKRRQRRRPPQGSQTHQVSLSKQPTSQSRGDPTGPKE
T1 sequence (P69697 whole entry): as the sequence (P69697 whole entry, one chain of several) above

Structure (SMILES)	LRA activity (in words) (J-Lat 9.2 latent cells)	transactivation by extracellular Tat relative to control (Tat protein [1])	transactivation by intracellular Tat relative to negative control (Tat protein [1])	LRA efficacy compared with BST-1 [2]	Kd [3]	induction of HIV-1 production (p24) (latent cell line ACH-2)	concentration stabilizing the Tat-TAR transcription complex [4]	Kd ([4]; retardation gel, 400 nM Tat, 200 nM TAR, 1.5 h at 25° C.)	effective concentrations on laboratory cell lines (Tat protein [1]; all the tests on laboratory cell lines (HeLa and That))	concentration sufficient for the LRA effect ex vivo ([2]; latent primary cells)	LRA activity relative to that of SAHA [5]	Kd [6]	concentration most effective in activating transactivation by Tat (Tat protein [7])
COc1ccc(-c2nn3ccnc3s2)cc1NC(=O)c1ccc(OCc2ccccc2)cc1 [(1), 4-(benzyloxy)-N-(5-{imidazo[2,1-b][1,3,4]thiadiazol-2-yl}-2-methoxyphenyl)benzamide]	significant activity												
O=C(Nc1ccc(-c2nc3ccccc3[nH]2)cc1)c1cccc(OCc2ccccc2)c1 [(3), N-[4-(1H-1,3-benzodiazol-2-yl)phenyl]-3-(benzyloxy)benzamide]	close to that of SAHA	108 times	9 times	at least as effective as BST-1									
COc1cc(C(=O)Nc2cc(-c3nc4ccccc4[nH]3)ccc2C)ccc1OCc1ccc(Cl)cc1 [Compound (2), N-[5-(1H-1,3-benzodiazol-2-yl)-2-methylphenyl]-4-[(4-chlorophenyl)methoxy]-3-methoxybenzamide]		60 times	3.9 times	at least as effective as BST-1	~4 µM	incapable of inducing the production of HIV-1	50 to 100 nM and 80 nM	~0.08 µM	~5 µM	50 to 100 nM and 50 nM	~40%	~5 µM	30 nM
